Reference: paper PMC3125149, “SCYX-7158, an Orally-Active Benzoxaborole for the Treatment of Stage 2 Human African Trypanosomiasis” (PLoS Neglected Tropical Diseases, 2011)
Like-named read-outs stand apart in the source and are kept apart here.

What was measured:
[1] = test system: T. b. brucei 427; test: Reversibility of trypanocidal effects (wash-out); type: cell-based; details: at about 5 times the IC50
Method: To establish the time and concentration required to cause persistent or irreversible effects by oxaboroles, T. b. brucei parasites were assessed for their ability to recover from transient exposure to test compounds. Trypanosomes were seeded in clear 96-well V-bottom plates at a density of 1×10^5 parasites per well and incubated with serially diluted test compound (from 10 to 0.02 µg/mL). One plate was prepared for each time point. At the designated time, a plate was removed from the incubator and spun at 2,600 g for 5 min to sediment the parasites. The supernatant was aspirated and 100 µL of warmed HMI-9 media was added to each well. The wash was repeated twice more. The parasites were resuspended in 100 µL of warmed media and 20 µL of this suspension was added to 80 µL of HMI-9 media in triplicate plates. Following a 72 h incubation, resazurin was added and trypanocidal activity determined as described for the in vitro sensitivity assay.

[2] = Steady-state pharmacokinetics in T. brucei-infected mice; type: in vivo, mouse; details: for AUC(0-inf) / Cmax: mouse; for AUC(0-inf): read-out: AUC0-inf in brain tissue
Method: The blood distribution, CNS disposition and pharmacokinetics of SCYX-7158 were evaluated in infected or non-infected rodents following intravenous or oral administration of compounds. Pharmacokinetics and bioavailability of SCYX-7158 were also evaluated in non-infected beagle dogs and cynomolgus monkeys. In-life phases of non-infected rodent studies were performed at Vivisource (Waltham, MA); studies in non-naïve cynomolgus monkeys were performed by SNBL USA (Everett, WA).
Samples of plasma (25 µL) and CSF (10 µL) were treated with 3 volumes of ice-cold methanol (containing 25 ng/mL of 2-chloro-4-fluoro-N-(1-hydroxy-1,3-dihyrobenzo[c][1], [2]oxaborol-6-yl)benzamide or 25 ng/mL d6-SCYX-7158 as an internal standard) to precipitate proteins. Treated samples were gently mixed at room temperature for 10 min, and then centrifuged at approximately 3000×g for 15 min at 15°C. The supernatants were transferred to 96-well plates or HPLC vials for analysis by LC-MS/MS.
Pharmacokinetic parameters were calculated from composite mean plasma or tissue data using non-compartmental (oral and intravenous routes) and bi-exponential (intravenous route) analyses in Microsoft Excel.

[3] = Metabolism in primary hepatocytes; type: in vitro ADME, rat or dog; details: over 12 h
[4] = Pharmacokinetics in uninfected mice; type: in vivo, mouse; details: for Kp: read-out: brain to plasma ratio based on AUC0–24 h; for AUC(0-t): read-out: AUC0–24 h
Method: The blood distribution, CNS disposition and pharmacokinetics of SCYX-7158 were evaluated in infected or non-infected rodents following intravenous or oral administration of compounds. Pharmacokinetics and bioavailability of SCYX-7158 were also evaluated in non-infected beagle dogs and cynomolgus monkeys. In-life phases of non-infected rodent studies were performed at Vivisource (Waltham, MA); studies in non-naïve cynomolgus monkeys were performed by SNBL USA (Everett, WA). Male CD-1 mice (∼25 g), male Sprague-Dawley rats (∼225 g), or male cynomolgus monkeys (∼3–5 kg) were administered test article by either bolus intravenous injection (IV) or oral gavage. Animals in the IV groups received a single 2 mg/kg IV dose. Animals received oral doses of test articles as either single or twice daily doses ranging from 8 mg/kg to 50 mg/kg. All doses were administered as clear colorless solutions in either 50% (v/v) PEG 400: 20% (v/v) ethanol: 30% (v/v) carboxymethylcellulose (0.5% w/v in sterile water for injection) or 2% (v/v) ethanol: 5% (w/v) dextrose in sterile water for injection. […] For pharmacokinetic analysis, blood samples were collected from mice via cardiac puncture under terminal anaesthesia. Serial blood samples were collected from rats via a vascular access port located in the lateral saphenous vein. Mice and rats were euthanized in a CO2 chamber before collection of terminal blood samples or brain tissue. Blood samples were collected into polypropylene tubes containing K2EDTA anticoagulant and stored on ice until centrifuged for the preparation of plasma. Plasma was stored at −70°C. Whole brains were collected following decapitation, blotted dry, placed into polypropylene containers and then immediately frozen at approximately −70°C. CSF was collected from rats via cisterna magna puncture, placed in sterile polypropylene tubes, and stored at approximately −70°C. […] Treated samples were gently mixed at room temperature for 10 min, and then centrifuged at approximately 3000×g for 15 min at 15°C. The supernatants were transferred to 96-well plates or HPLC vials for analysis by LC-MS/MS. Pharmacokinetic parameters were calculated from composite mean plasma or tissue data using non-compartmental (oral and intravenous routes) and bi-exponential (intravenous route) analyses in Microsoft Excel.

[5] = Stability in plasma or brain homogenate; type: in vitro ADME; details: incubated with plasma or brain homogenate for 4 h at 37°C
Method: Binding to human or mouse plasma proteins or mouse brain homogenate was determined by rapid equilibrium dialysis (RED) (Pierce, Rockford, IL) using a 48-well plate-based format according to the manufacturer's instructions. Briefly, test compound at the required concentrations was added to fresh human or mouse plasma (Bioreclamation, Liverpool, NY) or freshly prepared mouse brain homogenate. Duplicate aliquots of each sample were transferred into the sample chambers of the RED devices, and dialysis buffer (BupH PBS) was added to the buffer chambers. The plates were sealed and incubated at 37°C for 4 h. After dialysis, samples collected from the buffer and tissue chambers were treated with ice-cold methanol (3 volumes for plasma, 4 volumes for brain) to precipitate proteins. The treated samples were centrifuged for 10 min at 3×10^3 g at 15°C. The supernatants were assayed for test compound by LC-MS/MS. Calibration standards and quality control samples were prepared in matched matrix and assayed with samples. Values for unbound and bound fractions and mass balance were calculated. Concordance of binding for each batch of plasma was confirmed by assay of warfarin, imipramine and carbamezapine. […] The stability of each oxaborole in the CNS tissue was evaluated by incubation in fresh rodent brain homogenate. […] Supernatants from the incubation mixtures were analyzed for parent compound by LC-MS/MS.

CC1(C)OB(O)c2cc(NC(=O)c3ccc(F)cc3C(F)(F)F)ccc21 [SCYX-7158]
exposure time sufficient to produce irreversible effects on trypanosome survival [1]: 10 to 12 h | time brain concentrations maintained at or above the MIC (0.6 µg/mL) ([2]; 25 mg/kg dose): ~24 h | AUC(0-inf) ([2]; Swiss Webster, brain, 12.5 mg/kg oral, 7 daily doses, infected mice): 34200 ng·h/mL | Cmax ([2]; Swiss Webster, brain, 12.5 mg/kg oral, 7 daily doses, infected mice, read-out: Cmax in brain tissue): 6540 ng/mL | AUC(0-inf) ([2]; Swiss Webster, brain, 25 mg/kg oral, 7 daily doses, infected mice): 81500 ng·h/mL | Cmax ([2]; Swiss Webster, brain, 25 mg/kg oral, 7 daily doses, infected mice, read-out: Cmax in brain tissue): 12000 ng/mL | Cmax ([2]; plasma, 25 mg/kg doses, read-out: plasma Cmax at steady-state): ~15000 ng/mL | fraction of SCYX-7158 metabolized [3]: less than 5% | brain AUC0–24 h ([4]; 13.4 mg/kg oral, brain): 31400 ng·h/mL | time of Cmax ([4]; 13.4 mg/kg oral, plasma): 6 h | brain AUC0–24 h ([4]; 26 mg/kg oral, brain): 68000 ng·h/mL | Kp ([4]; male, CD-1, mouse, brain and plasma, 13.4 mg/kg oral): 0.38 | Kp ([4]; male, CD-1, mouse, brain/plasma, 26 mg/kg oral): 0.6 | bioavailability ([4]; male, CD-1, mouse, plasma, 13.4 mg/kg oral, read-out: absolute oral bioavailability): 55% | CL/F ([4]; male, CD-1, mouse, plasma, 13.4 mg/kg oral, read-out: oral clearance (Cl/F) (converted)): 2.72 mL/min/kg | AUC(0-t) ([4]; male, CD-1, mouse, 4.3 mg/kg intravenous, plasma): 48000 ng·h/mL | half-life ([4]; male, CD-1, mouse, 4.3 mg/kg intravenous, plasma, read-out: apparent elimination half-life (t1/2) (converted)): 26.6 h | Cmax ([4]; male, CD-1, mouse, 13.4 mg/kg oral, brain, read-out: Cmax in brain tissue): 4620 ng/mL | AUC(0-t) ([4]; male, CD-1, mouse, 13.4 mg/kg oral, plasma): 82000 ng·h/mL | Cmax ([4]; male, CD-1, mouse, 13.4 mg/kg oral, plasma, read-out: Cmax): 6960 ng/mL | Cmax ([4]; male, CD-1, mouse, 26 mg/kg oral, brain, read-out: Cmax in brain tissue): 8100 ng/mL | AUC(0-t) ([4]; male, CD-1, mouse, 26 mg/kg oral, plasma): 113000 ng·h/mL | Cmax ([4]; male, CD-1, mouse, 26 mg/kg oral, plasma, read-out: Cmax): 9800 ng/mL | stability [5]: stable
